Columns and labels:
[1] = target: human adenosine A2A membrane preparation (Homo sapiens (Human), UniProt P29274); test: Adenosine A2A receptor radioligand binding assay (SPA beads, 3H-SCH 58261, 384 plate); conditions: for inhibition at 0.01 µM: read-out: A2a binding % inh @ 10 nM; for inhibition at 0.1 µM: read-out: A2a binding % inh @ 100 nM; for inhibition at 1 µM: read-out: A2a binding % inh @ 1000 nM; for inhibition at 0.001 µM: read-out: A2a binding % inh @ 1 nM
Description: For the A2A adenosine receptor radioligand binding assay, the following modifications were made to the general protocol. GF/C filters (Perkin Elmer, 6005174), presoaked in 0.01% Brij for 2 h at room temperature were used. Filters were washed six times with 0.5 mL of ice-cold washing buffer (50 mM Tris pH 7.4) and 50 μL of Microscint 20 (Packard) was added in each well. The plates were then incubated for 15 min on an orbital shaker and then counted with a TopCount™ for 1 min/well. Another radioligand binding assay was used to evaluate the binding affinity for the adenosine A2A receptor assay was performed in duplicate in the wells of a 384 plate. Assay buffer contained DPBS 500 mM, MgCl2 0.1 mM, and 1% DMSO. Membrane-bead suspension was prepared by mixing 25.98 μL of human adenosine A2A membrane preparation (Perkin Elmer, RBHA2AM400UA) at 33.4 μg/mL, 28 μL of ADA at 20 μg/mL, and 932 μL of SPA beads at 3.33 mg/mL) and incubated the mixture for 20 min at room temperature. Mixed 20 μL of radiotracer (^3H-SCH 58261) at 15 nM to each well containing test articles at various concentrations and centrifuge the plate at 1000 rpm for 1 minute. Added 30 μL of the membraine-bead suspension to each well. Sealed the plates and incubated for 1 hr at room temperature with vigorous mixing on a plate mixer. Plates were read on Microbeta^2 (Perkin Elmer, 2450-0010).

[2] = target: HEK-293 cells expressing human recombinant adenosine A2A receptor (Homo sapiens (Human), UniProt P29274); test: cAMP assay, Assay 2 (Eu-cAMP tracer / ULight-anti-cAMP); assay type: cell-based; conditions: Assay 2
Description: The functional activity of compounds was tested using one of the two assays to detect the present of cAMP. Activation of G-protein coupled receptors (such as A2A) results in activation of adenylcyclase which converts ATP into cAMP which is used as a downstream signaling molecule. Therefore, molecules which act as GPCR (or specifically A2A receptor) antagonists cause a decrease in intracellular cAMP concentration.
Both assays used HEK-293 cells expressing human recombinant adenosine A2A receptor were grown prior to the test in media without antibiotic.
Assay 2 (Table B2-2): 100 nL of test articles at 100× of final concentration were transferred to assay plate by Echo. Cells were washed twice with 5 mL of PBS […]. After aspirating the PBS and adding 1.5 mL versine, cells were incubated at 37° C. for 2-5 min. After centrifugation, 4 mL of medium was added and adjusted cell density to 5,000 cells/well with Stimulation Buffer. 10 μL of cells were aliquoted to the assay plate, centrifuged at 1000 rpm for 1 minute, and incubated for 60 minutes at room temperature. 5 μL 4×Eu-cAMP tracer solution and 5 μL 4×Ulight™-anti-cAMP solution were added to assay plate, followed by centrifugation and 60-minute incubation at room temperature. Plates were read on EnVision.

Chain of HEK-293 cells expressing human recombinant adenosine A2A receptor (P29274 whole entry): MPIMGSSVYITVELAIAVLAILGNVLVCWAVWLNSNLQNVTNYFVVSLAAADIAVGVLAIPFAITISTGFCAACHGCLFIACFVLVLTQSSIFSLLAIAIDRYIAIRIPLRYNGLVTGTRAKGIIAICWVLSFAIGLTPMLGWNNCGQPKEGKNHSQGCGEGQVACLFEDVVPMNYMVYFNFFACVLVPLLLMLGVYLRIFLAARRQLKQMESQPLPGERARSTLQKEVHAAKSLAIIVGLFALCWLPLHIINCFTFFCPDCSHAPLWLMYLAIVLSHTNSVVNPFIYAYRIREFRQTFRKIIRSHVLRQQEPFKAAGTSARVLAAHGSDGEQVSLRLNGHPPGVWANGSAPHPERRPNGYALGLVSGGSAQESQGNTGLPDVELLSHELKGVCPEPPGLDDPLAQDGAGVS
Chain of human adenosine A2A membrane preparation (P29274 whole entry): as above

inhibition at 0.01 µM [1] [%] | inhibition at 0.1 µM [1] [%] | inhibition at 1 µM [1] [%] | IC50 [2] [nM] | inhibition at 0.001 µM [1] [%] | IC50 ([1]; Table B1-2) [nM] | Structure (SMILES)
 |  |  | > 10000 |  |  | Nc1cnc(-c2ccc3ncccc3c2)c(N2CCCC2=O)n1 [Compound 1.301, 1-(6-amino-3-(quinolin-6-yl)pyrazin-2-yl)pyrrolidin-2-one]
 |  |  | 279 |  |  | Cn1ccc(-c2nc(N)c(C(N)=O)nc2-c2cc(Cl)c3ncccc3c2)n1 [Compound 1.311, 3-amino-6-(8-chloroquinolin-6-yl)-5-(1-methyl-1H-pyrazol-3-yl)pyrazine-2-carboxamide]
 |  |  | 130 |  |  | Cc1ccn(-c2nc(N)cnc2-c2cc(C)c3ncccc3c2)n1 [Compound 1.296, 6-(3-methyl-1H-pyrazol-1-yl)-5-(8-methylquinolin-6-yl)pyrazin-2-amine]
 |  |  | > 10000 |  |  | Cc1n[nH]c(C)c1-c1nc(N)cnc1-c1ccc2ncccc2c1 [Compound 1.294, 6-(3,5-dimethyl-1H-pyrazol-4-yl)-5-(quinolin-6-yl)pyrazin-2-amine]
 |  |  | 120 |  |  | Cc1ccn(-c2nc(N)cnc2-c2cc(C)c3[nH]ncc3c2)n1 [Compound 1.300, 5-(7-methyl-1H-indazol-5-yl)-6-(3-methyl-1H-pyrazol-1-yl)pyrazin-2-amine]
 |  |  | 12.5 |  |  | Cn1ccc(-c2nc(N)c(Br)nc2-c2cc(Cl)c3ncccc3c2)n1 [Compound 1.324, 3-bromo-5-(8-chloroquinolin-6-yl)-6-(1-methyl-1H-pyrazol-3-yl)pyrazin-2-amine]
 |  |  | > 10000 |  |  | Cn1ccc(-c2nc(N)cnc2-c2ccc3[nH]c(=O)ccc3c2)n1 [Compound 1.353, 6-(5-amino-3-(1-methyl-1H-pyrazol-3-yl)pyrazin-2-yl)quinolin-2(1H)-one]
 |  |  | 173 |  |  | Nc1cnc(-c2ccc3c(=O)[nH]ccc3c2)c(-c2ccccc2)n1 [Compound 1.327, 6-(5-amino-3-phenylpyrazin-2-yl)isoquinolin-1(2H)-one]

Second part, the molecule before the results:

Structure (SMILES) | inhibition at 0.01 µM [1] [%] | inhibition at 0.1 µM [1] [%] | inhibition at 1 µM [1] [%] | IC50 [2] [nM] | inhibition at 0.001 µM [1] [%] | IC50 ([1]; Table B1-2) [nM]
Cc1ccc(-c2nc(N)c(C#N)nc2-c2ccc3ncccc3c2)s1 [Compound No. 1.282, 3-amino-5-(5-methylthiophen-2-yl)-6-(quinolin-6-yl)pyrazine-2-carbonitrile] | 74 | 82 | 79 |  |  | 
Cc1cc(C)n(-c2nc(N)cnc2-c2ccc3ncccc3c2)n1 [Compound No. 1.291, 6-(3,5-dimethyl-1H-pyrazol-1-yl)-5-(quinolin-6-yl)pyrazin-2-amine] | 0 | 0 |  |  | 0 | 
Cc1ccc(-c2nc(N)c(C#N)nc2-c2ccc3ncccc3c2)o1 [Compound No. 1.281, 3-amino-5-(5-methylfuran-2-yl)-6-(quinolin-6-yl)pyrazine-2-carbonitrile] | 78 | 88 | 80 |  |  | 
Cc1ccn(-c2nc(N)c(C#N)nc2-c2cc(Cl)c3ncccc3c2)n1 [Compound No. 1.292, 3-amino-6-(8-chloroquinolin-6-yl)-5-(3-methyl-1H-pyrazol-1-yl)pyrazine-2-carbonitrile] | 93 | 95 |  |  | 50 | 2.4
N#Cc1nc(-c2ccc3ncncc3c2)c(-c2ccccc2)nc1N [Compound No. 1.283, 3-amino-5-phenyl-6-(quinazolin-6-yl)pyrazine-2-carbonitrile] | 63 | 83 | 95 |  |  | 
Nc1cnc(-c2ccc3ncccc3c2)c(-c2cc[nH]n2)n1 [Compound No. 1.293, 6-(1H-pyrazol-3-yl)-5-(quinolin-6-yl)pyrazin-2-amine] | 32 | 31 |  |  | 28 | 
Nc1cnc(-c2cc(Cl)c3[nH]ncc3c2)c(-c2ccccc2)n1 [Compound No. 1.289] | 75 | 87 | 95 |  | 41 | 
CC(=O)Nc1nc(-c2ccccc2)c(-c2ccc3ncccc3c2)nc1C#N [Compound No. 1.284, N-(3-cyano-6-phenyl-5-(quinolin-6-yl)pyrazin-2-yl)acetamide] | 32 | 76 | 83 |  |  | 
